Data reported in paper PMC8895377, “In Vivo Targeting Replication Protein A for Cancer Therapy” (Frontiers in Oncology, 2022).
Read-outs that look alike come from different tables or passages of the source.

How the values were obtained:
[1] = test system: A549 adenocarcinoma and H460 large cell carcinoma; set-up: method as in doi:10.1101/2020.11.30.404640; conditions: both models, differing dosing regimens, DMSO/Tween; cited from earlier work
[2] = set-up: method as in PMID 32550990; conditions: cited from earlier work
[3] = Intrinsic clearance and half-life in rat microsomes; format: in vitro ADME; conditions: for microsomal CLint: rat, microsomes
From the text: Toward the goal to identify efficacious and safe RPAi 329 treatment regimens, we conducted single-agent screening in two lung cancer cell line-derived xenograft models. […] Having optimized cellular uptake and solubility via the addition of the propyl morpholino in 329 and 2004, we sought to determine how these modifications impact in vivo anticancer activity using two NSCLC models, A549 adenocarcinoma and H460 large cell carcinoma. […] Analyses of intrinsic clearance and half-life were conducted in mouse and rat microsomes ( Table 1 ). […] These values are less than the rate of 48, which is considered rapid clearance. In rat microsomes, rates of ~64 were obtained for 329 and are less than the rapid rate of 71.

[4] = test system: H460 cells; experiment: Caspase 3/7 apoptosis assay; format: cell-based, human; conditions: H460, 24 h
Experimental: Apoptosis induction was determined by activation of Caspases 3 and 7 using the CellEvent™ Caspase-3/7 Green Detection Reagent (Invitrogen). H460 cells were plated at 5 × 10^3 cells/well in black 96-well plates with clear bottoms (Costar) and incubated for 24 h prior to treatments. Cells were treated with the indicated concentration of RPAi or cisplatin for 24 h. The vehicle (DMSO) concentration was held constant at 1% for RPAi treatments. For caspase 3/7 detection, medium was removed and replaced with phosphate buffered saline (PBS) containing 5% fetal bovine serum (FBS) and 2 µM CellEvent™ Caspase-3/7 Green Detection Reagent. Cells were incubated at 37°C/5% CO2 for 1 h, and fluorescence intensity was measured in a BioTek Synergy H1 plate reader (excitation/emission 485/528). Images were captured with an Evos FL2 Auto microscope (Invitrogen) using a 10× objective.
Figure 3 The 329 induction of apoptotic cell death. (A) Analysis of caspase 3/7 activity in H460 cells following 24 h of treatment with 1% DMSO or the indicated concentrations of 329. Fluorescence images were captured as described in the Materials and Methods. (B) Quantification of caspase 3/7 activity. Fluorescence was measured in 96-well plates using a Biotek Synergy H1 plate reader following 24-h incubation with the indicated drugs and concentrations.

[5] = test system: A549 adenocarcinoma xenografts; experiment: A549 xenograft efficacy; format: in vivo, mice
From the text: To assess anticancer efficacy, the hind flanks of 60 8–10-week-old Nod SCID gamma (NSG) mice were implanted with the indicated cells (~2 × 10^6) in Matrigel. Tumor volumes were monitored by electronic caliper measurement [tumor volumes = length × (perpendicular width)^2 × 0.5]. NSG studies were approved by the Institutional Animal Care and Use Committee at Indiana University School of Medicine. Male NSG (NOD‐scid/IL2Rg^null) mice (In Vivo Therapeutics Core Facility, IU Simon Comprehensive Cancer Center, Indianapolis, IN, USA) were used and housed in a pathogen‐free facility at IUSM LARC. Mice with tumors of approximately 100 mm^3 were randomized into individual treatment arms. The indicated RPAi was formulated and administered via intraperitoneal injection (IP) at the indicated times. Tumor volumes were monitored biweekly as indicated, and the results are presented as the average tumor volume ± standard error of the mean for each group. […]
Figure 8 In vivo analysis of anticancer activity of 329. (A) Anticancer activity was assessed in human H460 NCSLC tumor xenografts in NOD/SCID mice. Mice were implanted subcutaneously on day 1 with H460 NSCLC cells, tumors were measured by calipers, and mice assigned randomly to treatment arms. […] (C) Tumor weight from A549 cells was determined on day 32. […]

[6] = target: Escherichia coli single strand binding protein (SSB) (Escherichia coli, UniProt P0AGE0); experiment: EMSA internal specificity control, SSB–ssDNA complex; conditions: internal specificity control in EMSA
Sequence of Escherichia coli single strand binding protein (SSB) (P0AGE0 2-178): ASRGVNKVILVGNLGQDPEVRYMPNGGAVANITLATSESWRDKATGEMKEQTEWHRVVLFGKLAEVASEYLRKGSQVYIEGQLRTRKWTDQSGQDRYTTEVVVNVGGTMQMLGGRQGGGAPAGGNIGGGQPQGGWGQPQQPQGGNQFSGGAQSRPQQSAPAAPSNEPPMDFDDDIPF
Experimental: EMSAs were performed as previously described ([9]). Briefly, reactions were conducted in 20 mM HEPES (pH 7.8), 1 mM DTT, 0.001% NP-40, and 50 mM NaCl. RPAis were suspended in 100% dimethlysulfoxide (DMSO), and DMSO concentration in the final reaction mixture was constant at less than 5%. Purified full-length RPA (120 ng) was incubated with the indicated RPAi or vehicle in reaction buffer for 30 min before the addition of the [^32]P-labeled 34-base ssDNA probe. Reactions were incubated for 5 min at room temperature, and products were separated via 6% native polyacrylamide gel electrophoresis. The bound and unbound fractions were quantified by phosphor-imager analysis using ImageQuant software (Molecular Dynamics, CA), and data were fit by non-linear regression using GraphPad Prism.
Figure 2 Replication protein A inhibitor (RPAi) inhibitory activity. (A) Chemical structure of RPAi’s 329 and 2004. (B) EMSA analysis of RPA–DNA interaction inhibition by 329 and 2004. Lanes 3–6 in each panel contain 6.25, 12.5, 25, and 50 µM of the indicated RPAi, respectively. The * indicates the position of the Escherichia coli SSB–single-stranded DNA (ssDNA) complex that serves as an internal specificity control. (C) Cell viability of H460 NSCLC cells in response to 329 and 2004.

## CCOc1ccc2cc(C3CC(c4ccc(I)cc4)=NN3C(=O)CCCC(=O)NCCCN3CCOCC3)c(Cl)nc2c1 (stereo not drawn) [compound 329]
[1]
  single-agent anticancer activity in vivo: only modest single-agent anticancer activity
[2]
  solubility, cellular uptake, and physicochemical properties: excellent
[3]; Rat microsomes
  half-life: 21.7 min
[3]; Rat microsomes, read-out: CLint
  microsomal CLint: 63.8 µL/min/mg
[3]; rat microsomes, read-out: rate of clearance
  microsomal CLint: ~64 µL/min/mg
[4]
  activation of caspases 3 and 7: induces cell death via a classical apoptotic pathway
[5]; 40 mg/kg IP once daily from day 11, optimized formulation
  tumor growth: significant reduction in tumor growth
[5]; 40 mg/kg IP, day 32
  terminal tumor weight: significant smaller tumors
[6]
  interaction of E. coli SSB with ssDNA: not impacted
